Source: patent US20250368649A1, “TETRAHYDROPYRIDOPYRIMIDINE PAN-KRAS INHIBITORS” (Mirati Therapeutics, Inc., priority 2022, published 2025)

Experiments:
[1] = target: KRas G12A (Homo sapiens, UniProt P01116, G12A); type: binding; conditions: single point, 10 nM compound, read-out: Binding to KRas (% inhibition at 10 nM) G12A
[2] = test system: ASPC1 cells; experiment: Inhibition of KRas-mediated phosphorylation of ERK (Cisbio HTRF pERK), ASPC1 cells; type: cell-based; conditions: Homo sapiens, AsPC-1 cells; for IC50: ASPC1, 3 h, 3 hr compound incubation, Cisbio pERK HTRF; for inhibition at 0.1 µM: ASPC1, single point at 100 nM, 3 hrs compound incubation
[3] = target: KRas G12S (Homo sapiens, UniProt P01116, G12S); type: binding; conditions: single point, 10 nM compound, read-out: Binding to KRas (% inhibition at 10 nM) G12S
[4] = target: KRas Q61H (Homo sapiens, UniProt P01116, Q61H); experiment: KRas binding assay (TR-FRET displacement), KRas Q61H; conditions: single point, 10 nM compound
[5] = target: KRas G12V (Homo sapiens, UniProt P01116, G12V); experiment: biochemical; conditions: Binding to KRas (IC50 nM) G12V, TR-FRET displacement, KRas G12V
[6] = target: KRas G12D (Homo sapiens, UniProt P01116, G12D); experiment: biochemical; conditions: Binding to KRas (IC50 nM) G12D, TR-FRET displacement, KRas G12D
[7] = target: KRas G12C (Homo sapiens, UniProt P01116, G12C); type: binding; conditions: single point, 10 nM compound, read-out: Binding to KRas (% inhibition at 10 nM) G12C
[8] = test system: H460 cells; experiment: Inhibition of KRas-mediated phosphorylation of ERK (Cisbio HTRF pERK), H460 cells; type: cell-based; conditions: Homo sapiens; for IC50: NCI-H460, 3 h, 3 hr compound incubation, Cisbio pERK HTRF; for inhibition at 0.1 µM: NCI-H460, single point at 100 nM, 3 hrs compound incubation
[9] = test system: MKN1 cells; experiment: Inhibition of KRas-mediated phosphorylation of ERK (Cisbio HTRF pERK), MKN1 cells; type: cell-based; conditions: Homo sapiens, MKN-1, 3 hour compound incubation, Cisbio pERK HTRF
Summary of the method: (§1)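 Seeding density of 6,000 cells per well was used, with cultures kept in RPMI/10% FBS from day 1.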

[10] = test system: H727 cells; experiment: Inhibition of KRas-mediated phosphorylation of ERK (Cisbio HTRF pERK), H727 cells; type: cell-based; conditions: Homo sapiens; for IC50: NCI-H727, 3 h, 3 hr compound incubation, Cisbio pERK HTRF; for inhibition at 0.1 µM: NCI-H727, single point at 100 nM, 3 hrs compound incubation
[11] = test system: HCT116 cells; experiment: Inhibition of KRas-mediated phosphorylation of ERK (Cisbio HTRF pERK), HCT116 cells; type: cell-based; conditions: Homo sapiens; for IC50: HCT-116, 3 h, 3 hr compound incubation, Cisbio pERK HTRF; for inhibition at 0.1 µM: HCT-116, single point at 100 nM, 3 hrs compound incubation
[12] = target: KRas G13D (Homo sapiens, UniProt P01116, G13D); type: binding; conditions: single point, 10 nM compound, read-out: Binding to KRas (% inhibition at 10 nM) G13D
[13] = test system: H358 cells; experiment: Inhibition of KRas-mediated phosphorylation of ERK (Cisbio HTRF pERK), H358 cells; type: cell-based; conditions: Homo sapiens; for inhibition at 0.1 µM: NCI-H358, single point at 100 nM, 3 hrs compound incubation; for IC50: NCI-H358, 3 h, 3 hr compound incubation, Cisbio pERK HTRF
[14] = target: KRas WT (Homo sapiens, UniProt P01116); experiment: KRas binding assay (TR-FRET displacement), KRas WT; conditions: single point, 10 nM compound
[15] = test system: A549 cells; experiment: Inhibition of KRas-mediated phosphorylation of ERK (Cisbio HTRF pERK), A549 cells; type: cell-based; conditions: Homo sapiens; for inhibition at 0.1 µM: single point at 100 nM, 3 hrs compound incubation; for IC50: A549, 3 h, 3 hr compound incubation, Cisbio pERK HTRF
[16] = test system: PSN1 cells; experiment: Inhibition of KRas-mediated phosphorylation of ERK (Cisbio HTRF pERK), PSN1 cells; type: cell-based; conditions: Homo sapiens, PSN1, 3 h, 3 hour compound incubation, Cisbio pERK HTRF
Summary of the method: as §1

[17] = target: KRas G12R (Homo sapiens, UniProt P01116, G12R); experiment: biochemical; conditions: Binding to KRas (IC50 nM) G12R, TR-FRET displacement, KRas G12R
Chain of KRas G12R (P01116 1-169 isoform P01116-2 G12R): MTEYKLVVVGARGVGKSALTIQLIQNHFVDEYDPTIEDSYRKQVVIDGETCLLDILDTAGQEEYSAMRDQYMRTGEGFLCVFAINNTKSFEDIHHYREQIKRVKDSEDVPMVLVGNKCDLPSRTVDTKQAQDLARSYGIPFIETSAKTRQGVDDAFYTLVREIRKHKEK

Chain of KRas G12V (P01116 1-169 isoform P01116-2 G12V): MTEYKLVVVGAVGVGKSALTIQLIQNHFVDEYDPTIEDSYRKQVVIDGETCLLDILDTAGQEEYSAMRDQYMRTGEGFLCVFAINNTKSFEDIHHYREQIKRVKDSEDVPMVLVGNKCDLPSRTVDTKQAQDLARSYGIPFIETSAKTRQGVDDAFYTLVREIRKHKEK
Chain of KRas G12C (P01116 1-169 isoform P01116-2 G12C): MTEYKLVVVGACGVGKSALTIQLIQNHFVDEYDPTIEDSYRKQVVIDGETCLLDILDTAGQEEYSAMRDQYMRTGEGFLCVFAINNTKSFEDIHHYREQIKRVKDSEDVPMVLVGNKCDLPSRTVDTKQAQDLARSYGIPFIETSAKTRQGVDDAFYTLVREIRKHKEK
Chain of KRas WT (P01116 1-169 isoform P01116-2): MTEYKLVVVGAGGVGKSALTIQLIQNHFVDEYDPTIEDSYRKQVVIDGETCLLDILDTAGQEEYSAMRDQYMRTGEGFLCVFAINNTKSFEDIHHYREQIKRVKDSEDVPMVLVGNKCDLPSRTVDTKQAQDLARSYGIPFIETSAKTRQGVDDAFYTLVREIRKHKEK
Chain of KRas G13D (P01116 1-169 isoform P01116-2 G13D): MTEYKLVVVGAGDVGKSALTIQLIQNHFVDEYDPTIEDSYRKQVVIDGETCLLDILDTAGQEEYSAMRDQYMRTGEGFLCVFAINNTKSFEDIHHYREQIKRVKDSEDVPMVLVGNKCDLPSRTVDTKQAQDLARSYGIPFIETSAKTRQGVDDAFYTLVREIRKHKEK
Chain of KRas G12D (P01116 1-169 isoform P01116-2 G12D): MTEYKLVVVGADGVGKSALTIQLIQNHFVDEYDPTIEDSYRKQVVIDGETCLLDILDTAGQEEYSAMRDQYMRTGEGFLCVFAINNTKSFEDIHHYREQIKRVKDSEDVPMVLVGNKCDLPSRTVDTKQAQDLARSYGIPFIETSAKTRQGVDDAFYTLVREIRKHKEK
Chain of KRas G12S (P01116 1-169 isoform P01116-2 G12S): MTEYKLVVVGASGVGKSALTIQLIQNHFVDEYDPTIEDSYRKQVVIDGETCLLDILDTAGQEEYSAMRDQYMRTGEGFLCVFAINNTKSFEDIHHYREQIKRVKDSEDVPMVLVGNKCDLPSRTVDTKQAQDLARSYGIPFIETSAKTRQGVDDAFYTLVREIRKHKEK
Chain of KRas Q61H (P01116 1-169 isoform P01116-2 Q61H): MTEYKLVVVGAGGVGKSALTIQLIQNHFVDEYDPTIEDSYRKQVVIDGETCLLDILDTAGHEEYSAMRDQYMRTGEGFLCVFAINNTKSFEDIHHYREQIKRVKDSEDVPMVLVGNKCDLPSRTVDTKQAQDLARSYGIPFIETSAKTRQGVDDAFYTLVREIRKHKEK
Chain of KRas G12A (P01116 1-169 isoform P01116-2 G12A): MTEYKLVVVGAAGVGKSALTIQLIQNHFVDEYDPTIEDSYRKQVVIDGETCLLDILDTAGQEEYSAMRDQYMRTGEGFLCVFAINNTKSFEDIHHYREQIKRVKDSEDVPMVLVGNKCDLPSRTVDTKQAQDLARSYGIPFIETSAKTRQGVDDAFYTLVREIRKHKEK

SMILES | inhibition at 0.01 µM [1] [%] | IC50 [2] [nM] | inhibition at 0.01 µM [3] [%] | inhibition at 0.01 µM [4] [%] | IC50 [5] [nM] | IC50 [6] [nM] | inhibition at 0.01 µM [7] [%] | IC50 [8] [nM] | IC50 [9] [nM] | IC50 [10] [nM] | IC50 [11] [nM] | inhibition at 0.01 µM [12] [%] | inhibition at 0.1 µM [13] [%] | inhibition at 0.01 µM [14] [%] | inhibition at 0.1 µM [15] [%] | IC50 [16] [nM] | IC50 [17] [nM] | inhibition at 0.1 µM [8] [%] | IC50 [13] [nM] | IC50 [15] [nM] | other results
CCc1c(F)ccc2cc(O)cc(N3CCc4c(nc(OC[C@@]56CCCN5C[C@H](F)C6)nc4N4CCCn5nc(NC)c(OC)c5C4)C3)c12 [Example 393, 5-ethyl-6-fluoro-4-(2-(((2R,7aS)-2-fluorohexahydro-1H-pyrrolizin-7a-yl)methoxy)-4-(3-methoxy-2-(methylamino)-7,8-dihydro-4H-pyrazolo[1,5-a][1,4]diazepin-5(6H)-yl)-5,6-dihydropyrido[3,4-d]pyrimidin-7(8H)-yl)naphthalen-2-ol] | 66 | 59 | 72 | 60 | 5 | 4 | 83 | 72 | 58.5 | 201 | 235 | 64 | 83 | 60 | 41 | > 10000 | 4 | – | – | – | –
CCNC(=O)c1nn2c(c1Cl)CN(c1nc(OC[C@@]34CCCN3C[C@H](F)C4)nc3c1CCN(c1cc(O)cc4ccc(F)c(CC)c14)C3)CCC2 [Example 367, 3-chloro-N-ethyl-5-(7-(8-ethyl-7-fluoro-3-hydroxynaphthalen-1-yl)-2-(((2R,7aS)-2-fluorohexahydro-1H-pyrrolizin-7a-yl)methoxy)-5,6,7,8-tetrahydropyrido[3,4-d]pyrimidin-4-yl)-5,6,7,8-tetrahydro-4H-pyrazolo[1,5-a][1,4]diazepine-2-carboxamide] | 99 | 2 | 99 | 99 | < 2 | < 2 | 100 | 24 | 4.2 | 3 | 40 | 98 | 101 | 98 | 85 | 2100 | < 2 | 83 | 1 | 5 | inhibition at 0.1 µM [11]: 62%
CCc1c(F)ccc2cc(O)cc(N3CCc4c(nc(OC[C@@]56CCCN5C[C@H](F)C6)nc4N4CCCn5nc(C(=O)N6CC7CCC(C7)C6)cc5C4)C3)c12 [Example 302, 3-azabicyclo[3.2.1]octan-3-yl(5-(7-(8-ethyl-7-fluoro-3-hydroxynaphthalen-1-yl)-2-(((2R,7aS)-2-fluorohexahydro-1H-pyrrolizin-7a-yl)methoxy)-5,6,7,8-tetrahydropyrido[3,4-d]pyrimidin-4-yl)-5,6,7,8-tetrahydro-4H-pyrazolo[1,5-a][1,4]diazepin-2-yl)methanone] | 85 | 9 | 93 | 93 | < 2 | 3 | 96 | 49 | 26.3 | 20 | 167 | 91 | 92 | 89 | 66 | 9490 | < 2 | 66 | 6 | 27 | inhibition at 0.1 µM [2]: 91%; inhibition at 0.1 µM [10]: 70%; inhibition at 0.1 µM [11]: 33%
CCc1c(F)ccc2cc(O)cc(N3CCc4c(nc(OC[C@@]56CCCN5C[C@H](F)C6)nc4N4CCCn5nc(C(=O)NCCOC)cc5C4)C3)c12 [Example 375, 5-(7-(8-ethyl-7-fluoro-3-hydroxynaphthalen-1-yl)-2-(((2R,7aS)-2-fluorohexahydro-1H-pyrrolizin-7a-yl)methoxy)-5,6,7,8-tetrahydropyrido[3,4-d]pyrimidin-4-yl)-N-(2-methoxyethyl)-5,6,7,8-tetrahydro-4H-pyrazolo[1,5-a][1,4]diazepine-2-carboxamide] | 94 | 4 | 98 | 93 | < 2 | < 2 | 98 | 36 | 16.6 | 7 | 91 | 93 | 102 | 93 | 68 | 3500 | < 2 | – | 4 | 20 | –
CCc1c(F)ccc2cc(O)cc(N3CCc4c(nc(OC[C@@]56CCCN5C[C@H](F)C6)nc4N4CCCn5nc(C(=O)N6CC[C@@H]7CC[C@H]6C7)cc5C4)C3)c12 [Example 338, (1S,5S)-2-azabicyclo[3.2.1]octan-2-yl(5-(7-(8-ethyl-7-fluoro-3-hydroxynaphthalen-1-yl)-2-(((2R,7aS)-2-fluorohexahydro-1H-pyrrolizin-7a-yl)methoxy)-5,6,7,8-tetrahydropyrido[3,4-d]pyrimidin-4-yl)-5,6,7,8-tetrahydro-4H-pyrazolo[1,5-a][1,4]diazepin-2-yl)methanone] | 90 | 6 | 97 | 93 | < 2 | 2 | 97 | 67 | 9.6 | 11 | 226 | 92 | 102 | 92 | 78 | 5430 | < 2 | 73 | 7 | 21 | inhibition at 0.1 µM [2]: 95%; inhibition at 0.1 µM [10]: 76%; inhibition at 0.1 µM [11]: 38%
CCc1c(F)ccc2cc(O)cc(N3CCc4c(nc(OC[C@@]56CCCN5C[C@H](F)C6)nc4N4CCCn5nc(N)c(Cl)c5C4)C3)c12 [Example 358, 4-(4-(2-amino-3-chloro-7,8-dihydro-4H-pyrazolo[1,5-a][1,4]diazepin-5(6H)-yl)-2-(((2R,7aS)-2-fluorohexahydro-1H-pyrrolizin-7a-yl)methoxy)-5,6-dihydropyrido[3,4-d]pyrimidin-7(8H)-yl)-5-ethyl-6-fluoronaphthalen-2-ol] | 93 | 4 | 99 | 95 | < 2 | < 2 | 99 | 25 | 20.6 | 16 | 111 | 94 | – | 94 | – | 7400 | < 2 | 90 | 4 | 10 | inhibition at 0.1 µM [2]: 95%; inhibition at 0.1 µM [10]: 72%; inhibition at 0.1 µM [11]: 50%
